Results: the NIST ThermoML archive (doi:10.1021/je030147g)

Experiments:
[1] = 101.33 kPa, Liquid
[2] = refractive index (Na D-line) (dimensionless); settings: 101.33 kPa, Liquid
[3] = refractive index (Na D-line) (dimensionless); xn = mol fraction of the nth substance listed; settings: 101.33 kPa, Liquid
[4] = xn = mol fraction of the nth substance listed; settings: 101.33 kPa, Liquid

c1ccncc1 [pyridine]
Settings	mass density, 298.15 K [kg/m3]	mass density, 303.15 K [kg/m3]	mass density, 308.15 K [kg/m3]	refractive index, 298.15 K	refractive index, 303.15 K	refractive index, 308.15 K	speed of sound, 298.15 K [m/s]	viscosity, 298.15 K [mPa·s]	viscosity, 303.15 K [mPa·s]	viscosity, 308.15 K [mPa·s]
[1]	979	973.7	968.6	–	–	–	1412	0.885	0.82	0.766
[2]	–	–	–	1.5062	1.5025	1.5016	–	–	–	–

ClC(Cl)=C(Cl)Cl [tetrachloroethene]
Settings	mass density, 298.15 K [kg/m3]	mass density, 303.15 K [kg/m3]	mass density, 308.15 K [kg/m3]	refractive index, 298.15 K	refractive index, 303.15 K	refractive index, 308.15 K	speed of sound, 298.15 K [m/s]	viscosity, 298.15 K [mPa·s]	viscosity, 303.15 K [mPa·s]	viscosity, 308.15 K [mPa·s]
[1]	1616	1607.5	1597.5	–	–	–	1033	0.875	0.831	0.791
[2]	–	–	–	1.5036	1.5005	1.4978	–	–	–	–

CCCCCCCCCCCCCC [tetradecane]
Settings	mass density, 298.15 K [kg/m3]	mass density, 303.15 K [kg/m3]	mass density, 308.15 K [kg/m3]	refractive index, 298.15 K	refractive index, 303.15 K	refractive index, 308.15 K	speed of sound, 298.15 K [m/s]	viscosity, 298.15 K [mPa·s]	viscosity, 303.15 K [mPa·s]	viscosity, 308.15 K [mPa·s]
[1]	760.7	757	753.3	–	–	–	1315	2.032	1.827	1.653
[2]	–	–	–	1.4282	1.426	1.4236	–	–	–	–

C1CCOC1 [tetrahydrofuran]
Settings	mass density, 298.15 K [kg/m3]	mass density, 303.15 K [kg/m3]	mass density, 308.15 K [kg/m3]	refractive index, 298.15 K	refractive index, 303.15 K	refractive index, 308.15 K	speed of sound, 298.15 K [m/s]	viscosity, 298.15 K [mPa·s]	viscosity, 303.15 K [mPa·s]	viscosity, 308.15 K [mPa·s]
[1]	882.9	877.5	871.2	–	–	–	1288	0.485	0.46	0.439
[2]	–	–	–	1.4049	1.4026	1.3998	–	–	–	–

CCCCN(CCCC)CCCC [tributylamine] + CCN(CC)CC
Settings	mass density, 298.15 K [kg/m3]	mass density, 303.15 K [kg/m3]	mass density, 308.15 K [kg/m3]	refractive index, 298.15 K	refractive index, 303.15 K	refractive index, 308.15 K	speed of sound, 298.15 K [m/s]	viscosity, 298.15 K [mPa·s]	viscosity, 303.15 K [mPa·s]	viscosity, 308.15 K [mPa·s]
[3], x1 = 0.1072	–	–	–	1.4052	1.4031	1.4012	–	–	–	–
[3], x1 = 0.2039	–	–	–	1.4104	1.4079	1.4054	–	–	–	–
[3], x1 = 0.3083	–	–	–	1.4131	1.4116	1.4102	–	–	–	–
[3], x1 = 0.4066	–	–	–	1.4164	1.4144	1.4122	–	–	–	–
[3], x1 = 0.5029	–	–	–	1.4208	1.4178	1.4148	–	–	–	–
[3], x1 = 0.5905	–	–	–	1.4218	1.4194	1.4169	–	–	–	–
[3], x1 = 0.6928	–	–	–	1.4238	1.4213	1.4189	–	–	–	–
[3], x1 = 0.7914	–	–	–	1.4256	1.423	1.4204	–	–	–	–
[3], x1 = 0.8942	–	–	–	1.4265	1.4241	1.4217	–	–	–	–
[3], x1 = 1	–	–	–	1.4276	1.4255	1.4228	–	–	–	–
[4], x1 = 0.1072	732	727.3	722.8	–	–	–	1143	0.433	0.411	0.388
[4], x1 = 0.2039	739.2	734.6	730.2	–	–	–	1160	0.491	0.464	0.438
[4], x1 = 0.3083	745.9	741.4	737.1	–	–	–	1179	0.567	0.533	0.499
[4], x1 = 0.4066	751.5	747.2	742.9	–	–	–	1196	0.643	0.602	0.561
[4], x1 = 0.5029	756.4	752.2	747.9	–	–	–	1210	0.719	0.672	0.625
[4], x1 = 0.5905	760.2	756	751.8	–	–	–	1221	0.801	0.746	0.688
[4], x1 = 0.6928	763.7	759.5	755.4	–	–	–	1232	0.899	0.833	0.767
[4], x1 = 0.7914	767.1	763	758.9	–	–	–	1236	1.003	0.923	0.844
[4], x1 = 0.8942	770.6	766.5	762.4	–	–	–	1246	1.118	1.026	0.934
[4], x1 = 1	773.9	769.2	765.7	–	–	–	1262	1.239	1.123	1.028
